In assay [1] the test system is apoptotic neutrophils (differentiated HL60) co-cultured with macrophage (differentiated THP-1). As to the kind of experiment: Efferocytosis index and apoptotic cell clearance. The assay is classed as cell-based, human. The protocol: THP-1 and HL60 cells were obtained from the American Type Culture Collection (ATCC, Rockville, Md., USA). THP-1 cells were grown in RPMI1640 medium (WELGENE, Seoul, Korea) containing 10% fetal bovine serum (HyClone, Waltham, Mass., USA), 1% antibiotics (100 mg/l streptomycin, 100 U/ml penicillin), and 0.4% 2-Mercaptoethanol (Sigma Aldrich, St. Louis, Mo., USA). HL60 cells were grown in RPMI1640 medium containing 20% fetal bovine serum and 1% antibiotics (100 mg/l streptomycin, 100 U/ml penicillin). Cells were grown at 37° C. in a 5% CO2 atmosphere. To differentiate THP-1 cells into macrophage-like cells, cells were grown in medium with 1% Phorbol 12-myristate 13-acetate (PMA) (Sigma Aldrich) for 72 h. To differentiate […] cells into neutrophil-like cells, cells were grown in medium with 10% DMSO (Sigma Aldrich) for 5 days
Differentiation HL60 was stained with […] CellTracker Red CMTPX (Molecular probes, Eugene, OG, USA) for 30 minutes in PBS and lead to apoptosis by PMA treatment for 24 hours. […] Efferocytotic index was analyzed by FACS (BD bioscience, Franklin Lakes, N.J., USA). […]
Differentiation HL60 was stained with […] CellTracker Red CMTPX (Molecular probes, Eugene, OG, USA) for 30 minutes in PBS and lead to apoptosis by PMA treatment. […] Fluorescence overlay videos were recorded using ZEN program (Carl Zeiss, Thornwood, NY, USA)

Assay [2] relates to gemcitabine-induced neutrophil extravasation. As to the kind of experiment: Gemcitabine-induced neutropenia mice model. The assay is classed as in vivo. On the procedure: Male BALB/c mice were randomly divided into 3 groups; normal control group (n=5), gemcitabine only group (n=5) and gemcitabine with PLAG group (n=5). The mice were intraperitoneally (i.p.) injected with 50 mg/kg gemcitabine to induce neutropenia. PLAG was diluted with phosphate-buffered saline (PBS) and then orally administrated at a dose of 50 or 250 mg/kg/day. The normal control group was administered PBS only during the experiment. The whole blood was collected from the orbital sinuses using capillary tubes (Kimble Chase Life Science and Research Products LLC, FL, USA) and collection tubes containing K3E-K3EDTA (Greiner Bio-One International, Germany). To obtain peritoneal cells, 5 ml of cold PBS was injected to the left side of the peritoneal wall using a 5 mL syringe, and the fluid was aspirated from the peritoneum. The collected cells were counted by complete blood count (CBC) analysis using Mindray BC-5300 auto-hematology analyzer (Shenzhen Mindray Biomedical Electronics, China). To establish a 4T1 tumor-bearing mice model, the murine 4T1 mammary carcinoma cells (1×10^5) were subcutaneously injected on the right side of the abdomen. On the 10th day after tumor injection, the mice were intraperitoneally (i.p.) injected with 50 mg/kg gemcitabine, and the next day the whole blood was collected from the orbital sinuses as mentioned above before sacrificing the animals to obtain different organs of the body for RT-PCR.
PLAG inhibits gemcitabine-induced neutrophil extravasation into the peritoneum by down-regulating the expression of adhesion molecules in normal BALB/c mice. Male BALB/c mice of 8-10 weeks of age were orally administrated with 50 or 250 mg/kg of PLAG and then were intraperitoneally injected with 50 mg/kg gemcitabine. After 24 h, blood samples were collected by retro-orbital bleeding, and the number of blood neutrophils was determined by CBC analysis. Each group contains five mice. The population of blood neutrophils was analyzed by flow cytometry. Red cell-lysed whole blood was stained with FITC-conjugated anti-Ly6G and PE-Cy7-conjugated anti-CD11b antibodies to determine the circulating neutrophil population. Ly6G+/CD11b+ cells were further stained with APC-conjugated anti-L-selectin and APC-conjugated anti-LFA-1 antibodies and were analyzed by flow cytometry to determine the expression of adhesion molecules.
The mice were intraperitoneally (i.p.) injected with 50 mg/kg gemcitabine to induce neutropenia. PLAG was diluted with phosphate-buffered saline (PBS) and then orally administrated at a dose of 50 or 250 mg/kg/day. The normal control group was administered PBS only during the experiment. At 15 h after gemcitabine treatment, the whole blood was collected from the orbital sinuses using capillary tubes (Kimble Chase Life Science and Research Products LLC, FL, USA) and collection tubes containing K3E-K3EDTA (Greiner Bio-One International, Kremsmünster, Austria). To obtain peritoneal cells, 5 ml of cold PBS was injected to the left side of the peritoneal wall using a 5 mL syringe, and the fluid was aspirated from the peritoneum. The collected cells were counted by complete blood count (CBC) analysis using Mindray BC-5300 auto-hematology analyzer (Shenzhen Mindray Biomedical Electronics, Guangdong Sheng, China).
To establish a 4T1 tumor-bearing mice model, the murine 4T1 mammary carcinoma cells (1×105) were subcutaneously injected on the right side of the abdomen. On the 10th day after tumor injection, the mice were intraperitoneally (i.p.) injected with 50 mg/kg gemcitabine, and the next day the whole blood was collected from the orbital sinuses as mentioned above before sacrificing the animals to obtain different organs of the body.

Regarding `CCCCC/C=C\C/C=C\CCCCCCCC(=O)OC(COC(C)=O)COC(=O)CCCCCCCCCCCCCCC` (racemic) [PLAG, 1-palmitoyl-2-linoleoyl-3-acetylglycerol], the “clearance of apoptotic neutrophils by macrophage phagocytosis observed within” value in assay [1] (PLAG 100 μg/mL, confocal) is no more than 30 min. In addition, the “efferocytosis of apoptotic neutrophils (efferocytotic index)” value in assay [1] (dose-dependently) was “promotes”. For the same compound, in assay [2] (15 hours after gemcitabine), the “neutrophil counts in the peritoneum” value is on record as “effectively decreases”. In addition, the “gemcitabine-induced cell surface expression of L-selectin and LFA-1” value in assay [2] (Gr-1+/CD11b+ cells) was “effectively inhibited”. Moreover, in assay [2] (PLAG 50 and 250 mg/kg oral, 15 hours after gemcitabine, dose-dependent), the circulating neutrophil counts result was “restored circulating neutrophils to an almost normal range”. Besides, the “population of Gr-1+ and CD11b+ neutrophils in the blood” value in assay [2] (gemcitabine 50 mg/kg i.p.) is reported as “maintained”.

The record behind these values is patent US20220339135A1, “COMPOSITIONS AND METHODS FOR MODULATING AN INFLAMMATORY RESPONSE” (Enzychem Lifesciences Corporation, priority 2019, published 2022).
